In this experiment the target is T1, full length SGK1 (Homo sapiens, UniProt O00141).
T1 construct: 125 μM full length SGK1 (Life Technologies Part #PR7358A); purchased Life Technologies PR7358A
T1 sequence (O00141 1-431): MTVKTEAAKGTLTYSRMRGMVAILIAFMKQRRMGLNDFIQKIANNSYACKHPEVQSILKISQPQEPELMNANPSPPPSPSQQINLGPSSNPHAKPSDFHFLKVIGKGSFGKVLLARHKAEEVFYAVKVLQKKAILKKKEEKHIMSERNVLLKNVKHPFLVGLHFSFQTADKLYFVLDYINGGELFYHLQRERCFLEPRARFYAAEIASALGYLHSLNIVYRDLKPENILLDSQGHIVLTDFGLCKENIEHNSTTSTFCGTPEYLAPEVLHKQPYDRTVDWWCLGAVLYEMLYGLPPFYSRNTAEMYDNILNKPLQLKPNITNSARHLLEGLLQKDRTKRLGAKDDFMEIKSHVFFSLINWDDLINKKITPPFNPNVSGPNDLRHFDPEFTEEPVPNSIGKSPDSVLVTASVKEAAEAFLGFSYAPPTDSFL
Description: SGK1 inhibition Assay A (Caliper LabChip electrophoretic separation of fluorescent peptide substrate and phosphorylated product). The class given is biochemical. To be noted: Assay A; 20 μM ATP, 40 min incubation; read-out: SGK1 IC50.

Molecules are shown by their SMILES. Structures can show the parent of a compound that is named as a salt.

In general, IC50 refers to the concentration at which inhibition is half-maximal. On to `CCOc1ccsc1C(=O)N[C@@H]1CCCN(c2cc(-c3ccc(S(C)(=O)=O)cc3)n3ncnc(N)c23)C1` [Example 99, (R)-N-(1-(4-amino-7-(4-(methylsulfonyl)phenyl)pyrrolo[2,1-f][1,2,4]triazin-5-yl)piperidin-3-yl)-3-ethoxythiophene-2-carboxamide], for which the IC50 is 7 nM. Then `COc1cc(C)sc1C(=O)N[C@@H]1CCCN(c2cc(-c3ccc(S(C)(=O)=O)cc3)n3ncnc(N)c23)C1` [Example 100, (R)-N-(1-(4-amino-7-(4-(methylsulfonyl)phenyl)pyrrolo[2,1-f][1,2,4]triazin-5-yl)piperidin-3-yl)-3-methoxy-5-methylthiophene-2-carboxamide], with 8 nM; and `Cc1cnc(C(=O)N[C@@H]2CCCN(c3cc(-c4ccc(S(C)(=O)=O)cc4)n4ncnc(N)c34)C2)s1` [Example 101, (R)-N-(1-(4-amino-7-(4-(methylsulfonyl)phenyl)pyrrolo[2,1-f][1,2,4]triazin-5-yl)piperidin-3-yl)-5-methylthiazole-2-carboxamide], with 21 nM; and `COc1cncc(C(=O)N[C@@H]2CCCN(c3cc(-c4ccc(S(C)(=O)=O)cc4)n4ncnc(N)c34)C2)c1` [Example 102, (R)-N-(1-(4-amino-7-(4-(methylsulfonyl)phenyl)pyrrolo[2,1-f][1,2,4]triazin-5-yl)piperidin-3-yl)-5-methoxynicotinamide, TFA], with 45 nM.

Regarding `CS(=O)(=O)c1ccc(-c2cc(N3CCC[C@H](C(=O)Nc4nccs4)C3)c3c(N)ncnn23)cc1` [Example 103, (S)-1-(4-amino-7-(4-(methylsulfonyl)phenyl)pyrrolo[2,1-f][1,2,4]triazin-5-yl)-N-(thiazol-2-yl)piperidine-3-carboxamide], the IC50 came to 726 nM. For `CS(=O)(=O)c1ccc(-c2cc(N3CCC[C@@H](C(=O)Nc4nccs4)C3)c3c(N)ncnn23)cc1` [Example 104, (R)-1-(4-amino-7-(4-(methylsulfonyl)phenyl)pyrrolo[2,1-f][1,2,4]triazin-5-yl)-N-(thiazol-2-yl)piperidine-3-carboxamide], the half-inhibitory concentration (IC50) came out at 247 nM.

Turning to `CS(=O)(=O)c1ccc(-c2cc(N3CCC[C@@H](C(=O)Nc4ccccc4)C3)c3c(N)ncnn23)cc1` [Example 105, (R)-1-(4-amino-7-(4-(methylsulfonyl)phenyl)pyrrolo [2,1-f][1,2,4]triazin-5-yl)-N-phenylpiperidine-3-carboxamide], the IC50 came to 335 nM. The same measure for `CS(=O)(=O)c1ccc(-c2cc(N3CCC[C@@H](C(=O)NCc4ccccc4)C3)c3c(N)ncnn23)cc1` [Example 106, (R)-1-(4-amino-7-(4-(methylsulfonyl)phenyl)pyrrolo [2,1-f][1,2,4]triazin-5-yl)-N-benzylpiperidine-3-carboxamide]: 823 nM; for `CS(=O)(=O)N1CC=C(c2cc(N3CCC[C@@H](NC(=O)c4ccns4)C3)c3c(N)ncnn23)C1` [Example 112, (R)—N-(1-(4-amino-7-(1-(methylsulfonyl)-2,5-dihydro-1H-pyrrol-3-yl)pyrrolo[2,1-f][1,2,4]triazin-5-yl)piperidin-3-yl)isothiazole-5-carboxamide, TFA]: 4 nM; for `CS(=O)(=O)N1CC=C(c2cc(N3CCC[C@@H](NC(=O)c4ccccc4)C3)c3c(N)ncnn23)C1` [Example 113, (R)—N-(1-(4-amino-7-(1-(methylsulfonyl)-2,5-dihydro-1H-pyrrol-3-yl)pyrrolo[2,1-f][1,2,4]triazin-5-yl)piperidin-3-yl)benzamide, TFA]: 23 nM. The same measure for `COc1cc(C(=O)N[C@@H]2CCCN(c3cc(C4=CCN(S(C)(=O)=O)C4)n4ncnc(N)c34)C2)ccn1` [Example 114, (R)—N-(1-(4-amino-7-(1-(methylsulfonyl)-2,5-dihydro-1H-pyrrol-3-yl)pyrrolo[2,1-f][1,2,4]triazin-5-yl)piperidin-3-yl)-2-methoxyisonicotinamide]: 16 nM; for `COc1cc(C(=O)N[C@@H]2CCCN(c3cc(C4=CN(S(C)(=O)=O)CC4)n4ncnc(N)c34)C2)ccn1` [Example 115, (R)—N-(1-(4-amino-7-(1-(methylsulfonyl)-4,5-dihydro-1H-pyrrol-3-yl)pyrrolo[2,1-f][1,2,4]triazin-5-yl)piperidin-3-yl)-2-methoxyisonicotinamide]: 103 nM; for `Cc1cc(C(=O)N[C@@H]2CCCN(c3cc(C4=CCN(S(C)(=O)=O)C4)n4ncnc(N)c34)C2)ccn1` [Example 116, (R)—N-(1-(4-amino-7-(1-(methylsulfonyl)-2,5-dihydro-1H-pyrrol-3-yl)pyrrolo[2,1-f][1,2,4]triazin-5-yl)piperidin-3-yl)-2-methylisonicotinamide]: 12 nM.

For the compound `CS(=O)(=O)N1CC=C(c2cc(N3CCC[C@@H](NC(=O)c4ccnc(F)c4)C3)c3c(N)ncnn23)C1` [Example 117, (R)—N-(1-(4-amino-7-(1-(methylsulfonyl)-2,5-dihydro-1H-pyrrol-3-yl)pyrrolo[2,1-f][1,2,4]triazin-5-yl)piperidin-3-yl)-2-fluoroisonicotinamide, TFA], the half-inhibitory concentration (IC50) came to 6 nM.

For the compound `CS(=O)(=O)N1C=C(c2cc(N3CCC[C@@H](NC(=O)c4ccnc(F)c4)C3)c3c(N)ncnn23)CC1` [Example 118, (R)—N-(1-(4-amino-7-(1-(methylsulfonyl)-4,5-dihydro-1H-pyrrol-3-yl)pyrrolo[2,1-f][1,2,4]triazin-5-yl)piperidin-3-yl)-2-fluoroisonicotinamide, TFA], the concentration for half-maximal inhibition (IC50) was determined as 130 nM. As for `CC(C)c1cc(C(=O)N[C@@H]2CCCN(c3cc(C4=CCN(S(C)(=O)=O)C4)n4ncnc(N)c34)C2)on1` [Example 119, (R)—N-(1-(4-amino-7-(1-(methylsulfonyl)-2,5-dihydro-1H-pyrrol-3-yl)pyrrolo[2,1-f][1,2,4]triazin-5-yl)piperidin-3-yl)-3-isopropylisoxazole-5-carboxamide, TFA], the IC50 came to 18 nM.

Turning to `CC(C)(C)OC(=O)N[C@@H]1CCCCN(c2cc(-c3ccc(S(C)(=O)=O)cc3)n3ncnc(N)c23)C1` [Example 120, tert-butyl (R)-(1-(4-amino-7-(4-(methylsulfonyl)phenyl)pyrrolo[2,1-f][1,2,4]triazin-5-yl)azepan-3-yl)carbamate], the 50% inhibitory concentration (IC50) is 3400 nM. On to `COc1cc(C(=O)N(C)[C@@H]2CCCN(c3cc(-c4ccc(S(C)(=O)=O)cc4)n4ncnc(N)c34)C2)ccn1` [Example 121, (R)—N-(1-(4-amino-7-(4-(methylsulfonyl)phenyl)pyrrolo[2,1-f][1,2,4]triazin-5-yl)piperidin-3-yl)-2-methoxy-N-methylisonicotinamide], for which the IC50 was determined as 383 nM. Then `Cc1ccc(C(=O)N(C)[C@@H]2CCCN(c3cc(-c4ccc(S(C)(=O)=O)cc4)n4ncnc(N)c34)C2)s1` [Example 122, (R)—N-(1-(4-amino-7-(4-(methylsulfonyl)phenyl)pyrrolo[2,1-f][1,2,4]triazin-5-yl)piperidin-3-yl)-N,5-dimethylthiophene-2-carboxamide], with 29 nM. With `CN(C(=O)c1ccccc1)[C@@H]1CCCN(c2cc(-c3ccc(S(C)(=O)=O)cc3)n3ncnc(N)c23)C1` [Example 123, (R)—N-(1-(4-amino-7-(4-(methylsulfonyl)phenyl)pyrrolo[2,1-f][1,2,4]triazin-5-yl)piperidin-3-yl)-N-methylbenzamide], the IC50 amounted to 606 nM. The same measure for `Cc1ccc(C(=O)N[C@@H]2CCCN(c3cc(C4=CCN(S(C)(=O)=O)C4)n4ncnc(N)c34)C2)s1` [Example 124, (R)—N-(1-(4-amino-7-(1-(methylsulfonyl)-2,5-dihydro-1H-pyrrol-3-yl)pyrrolo[2,1-f][1,2,4]triazin-5-yl)piperidin-3-yl)-5-methylthiophene-2-carboxamide]: 2 nM; for `Cc1ccc(C(=O)N[C@@H]2CCCN(c3cc(C4=CN(S(C)(=O)=O)CC4)n4ncnc(N)c34)C2)s1` [Example 125]: 27 nM; for `Nc1ncnn2c(-c3ccncc3)cc(N3CCC[C@@H](NC(=O)c4ccccc4)C3)c12` [Example 126, N-[(3R)-1-[4-amino-7-(pyridin-4-yl)pyrrolo[2,1-f][1,2,4]triazin-5-yl]piperidin-3-yl]benzamide]: 5 nM. The same measure for `COc1cc(C(=O)N[C@@H]2CCCN(c3cc(-c4ccncc4)n4ncnc(N)c34)C2)ccn1` [Example 127, N-[(3R)-1-[4-amino-7-(pyridin-4-yl)pyrrolo[2,1-f][1,2,4]triazin-5-yl]piperidin-3-yl]-2-methoxypyridine-4-carboxamide]: 5 nM; for `Cc1ccc(C(=O)N[C@@H]2CCCN(c3cc(-c4ccncc4)n4ncnc(N)c34)C2)s1` [Example 128, N-[(3R)-1-[4-amino-7-(pyridin-4-yl)pyrrolo[2,1-f][1,2,4]triazin-5-yl]piperidin-3-yl]-5-methylthiophene-2-carboxamide]: 2 nM. With `Nc1ncnn2c(-c3ccnc(F)c3)cc(N3CCC[C@@H](NC(=O)c4ccc(Cl)s4)C3)c12` [Example 130, N-[(3R)-1-[4-amino-7-(2-fluoropyridin-4-yl)pyrrolo[2,1-f][1,2,4]triazin-5-yl]piperidin-3-yl]-5-chlorothiophene-2-carboxamide], the 50% inhibitory concentration (IC50) turned out to be 19 nM.

`Cc1ccc(C(=O)N[C@@H]2CCCN(c3cc(-c4ccnc(F)c4)n4ncnc(N)c34)C2)s1` [Example 131, N-[(3R)-1-[4-amino-7-(2-fluoropyridin-4-yl)pyrrolo[2,1-f][1,2,4]triazin-5-yl]piperidin-3-yl]-5-methylthiophene-2-carboxamide]: the half-inhibitory concentration (IC50) amounted to 2 nM.

Values taken from US20260250290A1 (BRISTOL-MYERS SQUIBB COMPANY, priority 2023, published 2026).
